Test results published in paper PMC11879280, “Antimicrobial activity of peptoids against Metallo-β-lactamase-producing Klebsiella pneumoniae, Acinetobacter baumannii, Pseudomonas aeruginosa, and other WHO priority pathogens, including Candida auris” (Journal of Applied Microbiology, 2025).
Like-named read-outs stand apart in the source and are kept apart here. Square brackets hold non-standard residues; d marks the D form. Peptide text beside a SMILES is read from it. Nspe(4-Br) = C[C@H](NCC(=O)O)c1ccc(Br)cc1; Nspe = C[C@H](NCC(=O)O)c1ccccc1; Nlys = NCCCCNCC(=O)O

What was measured:
MBL-producing bacteria = test: Geometric mean MIC, therapeutic index and selectivity ratio, MBL-producing bacteria; format: cell-based
Procedure, shortened: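 Values are geometric means of MICs over the pathogen panel. MICs were read after 16–20 h shaking at 37°C and 120 rpm, with 5 × 10^5 CFU ml^−1 in MHB (peptidomimetics) or CAMHB (antibiotics), and bactericidal endpoints from subculture. Strips ran 20 h at 37°C on Mueller–Hinton agar lawns (1.5 × 10^8 CFU ml^−1).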

C. auris strains = conditions: two C. auris strains
Procedure, shortened: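 Inoculum 5 × 10^5 CFU ml^−1 in CAMHB for antibiotics or MHB for peptidomimetics; incubated 37°C, 120 rpm, 16–20 h. Suspensions plated on Trypticase Soya Agar with phosphatidylcholine and Tween 80 for MBC/MFC. Geometric mean MIC computed across pathogens; therapeutic index calculated by formula.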

[1] = test system: horse red blood cells (RBCs); test: Haemolysis assay; format: cell-based
Procedure, shortened: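 Washed horse RBCs exposed to peptoids at 0.5–250 μg ml^−1 in PBS for 4 h at 37 °C; supernatant OD 540 nm read after centrifugation. Percent haemolysis normalized between PBS (0%) and water (100%) controls, in triplicate.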

A. baumannii 005 = test system: A. baumannii 005
Procedure, shortened: (§1)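 Incubation 37°C, 120 rpm, 16–20 h, starting from 5 × 10^5 CFU/ml in MHB (peptidomimetics) or cation-adjusted MHB (antibiotics). Bactericidal/fungicidal endpoints came from log10-diluted wells plated on Trypticase Soya Agar containing phosphatidylcholine and Tween 80; MICs also summarised as geometric means.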

A. baumannii 006 = test system: A. baumannii 006
Procedure, shortened: as §1

A. baumannii 007 = test system: A. baumannii 007
Procedure, shortened: as §1

A. baumannii 008 = test system: A. baumannii 008
Procedure, shortened: as §1

E. coli 0010 = test system: E. coli 0010
Procedure, shortened: as §1

E. coli 0011 = test system: E. coli 0011
Procedure, shortened: as §1

E. coli 0015 = test system: E. coli 0015
Procedure, shortened: as §1

E. coli 005 = test system: E. coli 005
Procedure, shortened: as §1

En. cloacae 001 = test system: En. cloacae 001
Procedure, shortened: as §1

En. cloacae 003 = test system: En. cloacae 003
Procedure, shortened: as §1

En. cloacae 005 = test system: En. cloacae 005
Procedure, shortened: as §1

[2] = test system: Enteroc. faecalis NCTC 13 379
Procedure, shortened: as §1

K. pneumoniae JIE4212 = test system: K. pneumoniae JIE4212
Procedure, shortened: as §1

P. aeruginosa 216 = test system: P. aeruginosa 216
Procedure, shortened: as §1

P. aeruginosa 33 = test system: P. aeruginosa 33
Procedure, shortened: as §1

S. aureus 04 = test system: S. aureus 04
Procedure, shortened: as §1

S. aureus 105 = test system: S. aureus 105
Procedure, shortened: as §1

In the case of `C[C@@H](c1ccc(Br)cc1)N(CC(=O)N(CCCCN)CC(=O)N(CC(=O)N(CC(=O)N(CCCCN)CC(N)=O)[C@@H](C)c1ccc(Br)cc1)[C@@H](C)c1ccccc1)C(=O)CN(C(=O)CNCCCCN)[C@@H](C)c1ccccc1` [TM12] (H-[Nlys][Nspe][Nspe(4-Br)][Nlys][Nspe][Nspe(4-Br)][Nlys]-NH2), the “Geometric mean MICMBL” value (MBL-producing bacteria) is reported as 62.5 µg/mL, the “Geometric mean MICCA” value (C. auris strains) is reported as 15.6 µg/mL and the “HD10 (10% haemolytic dose)” value [1] is reported as 66.4 µmol/L. The “HD50 (50% haemolytic dose)” value [1] was 212.6 µmol/L, the “HD10 (10% haemolytic dose)” value ([1]; red cells of horse, 4 h) was 80 µg/mL and the “HD50 (50% haemolytic dose)” value ([1]; red cells of horse, 4 h) was greater than 256 µg/mL. For the same compound, the MIC of peptidomimetics (A. baumannii 005; 005) was 51.8 µM, the MIC of peptidomimetics (A. baumannii 005; A. baumannii 005, MHB (melimine/Mel4 with 0.2% BSA, 0.01% acetic acid), mean MIC) was 62.5 mg/L and the MIC of peptidomimetics (A. baumannii 006; 006) was 103.8 µM. For the same compound, the MIC of peptidomimetics (A. baumannii 006; A. baumannii 006, MHB (melimine/Mel4 with 0.2% BSA, 0.01% acetic acid), mean MIC) was 125 mg/L, the MIC of peptidomimetics (A. baumannii 007; 007) was 51.8 µM and the MIC of peptidomimetics (A. baumannii 007; A. baumannii 007, MHB (melimine/Mel4 with 0.2% BSA, 0.01% acetic acid), mean MIC) was 62.5 mg/L. It also gave an MIC of peptidomimetics (A. baumannii 008; 008) of 51.8 µM, an MIC of peptidomimetics (A. baumannii 008; A. baumannii 008, MHB (melimine/Mel4 with 0.2% BSA, 0.01% acetic acid), mean MIC) of 62.5 mg/L and an MIC of peptidomimetics (E. coli 0010; 0010) of 103.8 µM. It also gave an MIC of peptidomimetics (E. coli 0010; E. coli 0010, MHB (melimine/Mel4 with 0.2% BSA, 0.01% acetic acid), mean MIC) of 125 mg/L, an MIC of peptidomimetics (E. coli 0011; 0011) of 25.9 µM and an MIC of peptidomimetics (E. coli 0011; E. coli 0011, MHB (melimine/Mel4 with 0.2% BSA, 0.01% acetic acid), mean MIC) of 31.3 mg/L. It also gave an MIC of peptidomimetics (E. coli 0015; 0015) of 51.8 µM, an MIC of peptidomimetics (E. coli 0015; E. coli 0015, MHB (melimine/Mel4 with 0.2% BSA, 0.01% acetic acid), mean MIC) of 62.5 mg/L and an MIC of peptidomimetics (E. coli 005; 005) of 103.8 µM. It also gave an MIC of peptidomimetics (E. coli 005; E. coli 005, MHB (melimine/Mel4 with 0.2% BSA, 0.01% acetic acid), mean MIC) of 125 mg/L, an MIC of peptidomimetics (En. cloacae 001) of 13.0 µM and an MIC of peptidomimetics (En. cloacae 001; En. cloacae 001, MHB (melimine/Mel4 with 0.2% BSA, 0.01% acetic acid), mean MIC) of 15.6 mg/L. It also gave an MIC of peptidomimetics (En. cloacae 003) of 3.3 µM, an MIC of peptidomimetics (En. cloacae 003; En. cloacae 003, MHB (melimine/Mel4 with 0.2% BSA, 0.01% acetic acid), mean MIC) of 3.9 mg/L and an MIC of peptidomimetics (En. cloacae 005) of 13.0 µM. The MIC of peptidomimetics (En. cloacae 005; En. cloacae 005, MHB (melimine/Mel4 with 0.2% BSA, 0.01% acetic acid), mean MIC) was 15.6 mg/L, the MIC of peptidomimetics ([2]; Enteroc. faecalis NCTC 13 379, MHB (melimine/Mel4 with 0.2% BSA, 0.01% acetic acid), mean MIC) was 7.8 mg/L and the MIC of peptidomimetics ([2]; NCTC 13) was 6.5 µM. It also gave an MIC of peptidomimetics (K. pneumoniae JIE4212; JIE4212) of 103.8 µM, an MIC of peptidomimetics (K. pneumoniae JIE4212; K. pneumoniae JIE4212, MHB (melimine/Mel4 with 0.2% BSA, 0.01% acetic acid), mean MIC) of 125 mg/L and an MIC of peptidomimetics (P. aeruginosa 216; 216) of 25.9 µM. The MIC of peptidomimetics (P. aeruginosa 216; P. aeruginosa 216, MHB (melimine/Mel4 with 0.2% BSA, 0.01% acetic acid), mean MIC) was 31.3 mg/L, the MIC of peptidomimetics (P. aeruginosa 33; 33) was 3.3 µM and the MIC of peptidomimetics (P. aeruginosa 33; P. aeruginosa 33, MHB (melimine/Mel4 with 0.2% BSA, 0.01% acetic acid), mean MIC) was 3.9 mg/L. It also gave an MIC of peptidomimetics (S. aureus 04; 04) of 3.3 µM, an MIC of peptidomimetics (S. aureus 04; S. aureus 004, MHB (melimine/Mel4 with 0.2% BSA, 0.01% acetic acid), mean MIC) of 3.9 mg/L and an MIC of peptidomimetics (S. aureus 105; 105) of 6.5 µM. The MIC of peptidomimetics (S. aureus 105; S. aureus 105, MHB (melimine/Mel4 with 0.2% BSA, 0.01% acetic acid), mean MIC) was 7.8 mg/L.
